Activity calls are given as the source filed them. The rule behind the calls is not given here.
Assays:
[1] = tested on: Mus musculus; assay: Anticonvulsant activity in albino CF1 mouse assessed as protection against maximal electroshock-induced seizures at 100 mg/kg, ip measured after 0.25 hr; type: functional, organism-based; design: dose 100 mg/kg
[2] = tested on: Mus musculus; assay: Anticonvulsant activity in albino CF1 mouse assessed as protection against maximal electroshock-induced seizures at 100 mg/kg, ip measured after 0.5 hr; type: functional, organism-based; design: dose 100 mg/kg
[3] = tested on: Mus musculus; assay: Anticonvulsant activity in albino CF1 mouse assessed as protection against maximal electroshock-induced seizures at 100 mg/kg, ip measured after 1 hr; type: functional, organism-based; design: dose 100 mg/kg
[4] = tested on: Mus musculus; assay: Anticonvulsant activity in albino CF1 mouse assessed as protection against maximal electroshock-induced seizures at 100 mg/kg, ip measured after 4 hrs; type: functional, organism-based; design: dose 100 mg/kg
[5] = tested on: Mus musculus; assay: Anticonvulsant activity in albino CF1 mouse assessed as protection against subcutaneous metrazol-induced seizures at 100 mg/kg, ip measured after 0.25 hr; type: functional, organism-based; design: dose 100 mg/kg
[6] = tested on: Mus musculus; assay: Anticonvulsant activity in albino CF1 mouse assessed as protection against subcutaneous metrazol-induced seizures at 100 mg/kg, ip measured after 0.5 hr; type: functional, organism-based; design: dose 100 mg/kg
[7] = tested on: Mus musculus; assay: Anticonvulsant activity in albino CF1 mouse assessed as protection against subcutaneous metrazol-induced seizures at 100 mg/kg, ip measured after 1 hr; type: functional, organism-based; design: dose 100 mg/kg
[8] = tested on: Mus musculus; assay: Anticonvulsant activity in albino CF1 mouse assessed as protection against subcutaneous metrazol-induced seizures at 100 mg/kg, ip measured after 4 hrs; type: functional, organism-based; design: dose 100 mg/kg
[9] = tested on: Mus musculus; assay: Neurotoxicity in albino CF1 mouse at 100 mg/kg, ip measured after 0.25 hr; type: toxicity, organism-based; design: dose 100 mg/kg, route intraperitoneal; details: in vivo
[10] = tested on: Mus musculus; assay: Neurotoxicity in albino CF1 mouse at 100 mg/kg, ip measured after 0.5 hr; type: toxicity, organism-based; design: dose 100 mg/kg, route intraperitoneal; details: in vivo
[11] = tested on: Mus musculus; assay: Neurotoxicity in albino CF1 mouse at 100 mg/kg, ip measured after 1 hr; type: toxicity, organism-based; design: dose 100 mg/kg, route intraperitoneal; details: in vivo
[12] = tested on: Mus musculus; assay: Neurotoxicity in albino CF1 mouse at 100 mg/kg, ip measured after 4 hrs; type: toxicity, organism-based; design: dose 100 mg/kg, route intraperitoneal; details: in vivo
[13] = tested on: Rattus norvegicus; assay: Anticonvulsant activity in Sprague-Dawley rat assessed as protection against maximal electroshock-induced seizures at 30 mg/kg, po measured after 0.25 hr; type: functional, organism-based; design: dose 30 mg/kg
[14] = tested on: Rattus norvegicus; assay: Anticonvulsant activity in Sprague-Dawley rat assessed as protection against maximal electroshock-induced seizures at 30 mg/kg, po measured after 0.5 hr; type: functional, organism-based; design: dose 30 mg/kg
[15] = tested on: Rattus norvegicus; assay: Anticonvulsant activity in Sprague-Dawley rat assessed as protection against maximal electroshock-induced seizures at 30 mg/kg, po measured after 1 hr; type: functional, organism-based; design: dose 30 mg/kg
[16] = tested on: Rattus norvegicus; assay: Anticonvulsant activity in Sprague-Dawley rat assessed as protection against maximal electroshock-induced seizures at 30 mg/kg, po measured after 2 hrs; type: functional, organism-based; design: dose 30 mg/kg
[17] = tested on: Rattus norvegicus; assay: Anticonvulsant activity in Sprague-Dawley rat assessed as protection against maximal electroshock-induced seizures at 30 mg/kg, po measured after 4 hrs; type: functional, organism-based; design: dose 30 mg/kg
[18] = tested on: Rattus norvegicus; assay: Neurotoxicity in MES Sprague-Dawley rat model at 30 mg/kg, po measured after 0.25 hr; type: toxicity, organism-based; design: dose 30 mg/kg, route oral; details: in vivo
[19] = tested on: Rattus norvegicus; assay: Neurotoxicity in MES Sprague-Dawley rat model at 30 mg/kg, po measured after 0.5 hr; type: toxicity, organism-based; design: dose 30 mg/kg, route oral; details: in vivo
[20] = tested on: Rattus norvegicus; assay: Neurotoxicity in MES Sprague-Dawley rat model at 30 mg/kg, po measured after 1 hr; type: toxicity, organism-based; design: dose 30 mg/kg, route oral; details: in vivo
[21] = tested on: Rattus norvegicus; assay: Neurotoxicity in MES Sprague-Dawley rat model at 30 mg/kg, po measured after 2 hrs; type: toxicity, organism-based; design: dose 30 mg/kg, route oral; details: in vivo
[22] = tested on: Rattus norvegicus; assay: Neurotoxicity in MES Sprague-Dawley rat model at 30 mg/kg, po measured after 4 hrs; type: toxicity, organism-based; design: dose 30 mg/kg, route oral; details: in vivo
[23] = tested on: Rattus norvegicus; assay: Anticonvulsant activity in Sprague-Dawley rat assessed as protection against maximal electroshock-induced seizures at 30 mg/kg, ip measured after 0.25 hr; type: functional, organism-based; design: dose 30 mg/kg
[24] = tested on: Rattus norvegicus; assay: Anticonvulsant activity in Sprague-Dawley rat assessed as protection against maximal electroshock-induced seizures at 30 mg/kg, ip measured after 0.5 hr; type: functional, organism-based; design: dose 30 mg/kg
[25] = tested on: Rattus norvegicus; assay: Anticonvulsant activity in Sprague-Dawley rat assessed as protection against maximal electroshock-induced seizures at 30 mg/kg, ip measured after 1 hr; type: functional, organism-based; design: dose 30 mg/kg
[26] = tested on: Rattus norvegicus; assay: Anticonvulsant activity in Sprague-Dawley rat assessed as protection against maximal electroshock-induced seizures at 30 mg/kg, ip measured after 2 hrs; type: functional, organism-based; design: dose 30 mg/kg
[27] = tested on: Rattus norvegicus; assay: Anticonvulsant activity in Sprague-Dawley rat assessed as protection against maximal electroshock-induced seizures at 30 mg/kg, ip measured after 4 hrs; type: functional, organism-based; design: dose 30 mg/kg
[28] = tested on: Rattus norvegicus; assay: Neurotoxicity in MES Sprague-Dawley rat model at 30 mg/kg, ip measured after 0.25 hr; type: toxicity, organism-based; design: dose 30 mg/kg, route intraperitoneal; details: in vivo
[29] = tested on: Rattus norvegicus; assay: Neurotoxicity in MES Sprague-Dawley rat model at 30 mg/kg, ip measured after 0.5 hr; type: toxicity, organism-based; design: dose 30 mg/kg, route intraperitoneal; details: in vivo
[30] = tested on: Rattus norvegicus; assay: Neurotoxicity in MES Sprague-Dawley rat model at 30 mg/kg, ip measured after 1 hr; type: toxicity, organism-based; design: dose 30 mg/kg, route intraperitoneal; details: in vivo
[31] = tested on: Rattus norvegicus; assay: Neurotoxicity in MES Sprague-Dawley rat model at 30 mg/kg, ip measured after 2 hrs; type: toxicity, organism-based; design: dose 30 mg/kg, route intraperitoneal; details: in vivo
[32] = tested on: Rattus norvegicus; assay: Neurotoxicity in MES Sprague-Dawley rat model at 30 mg/kg, ip measured after 4 hrs; type: toxicity, organism-based; design: dose 30 mg/kg, route intraperitoneal; details: in vivo
[33] = tested on: Mus musculus; assay: Anticonvulsant activity in albino CF1 mouse assessed as protection against 32 mA current-induced seizures at 100 mg/kg, ip measured after 0.25 hr; type: functional, organism-based; design: dose 100 mg/kg
[34] = tested on: Mus musculus; assay: Anticonvulsant activity in albino CF1 mouse assessed as protection against 32 mA current-induced seizures at 100 mg/kg, ip measured after 0.5 hr; type: functional, organism-based; design: dose 100 mg/kg
[35] = tested on: Mus musculus; assay: Anticonvulsant activity in albino CF1 mouse assessed as protection against 32 mA current-induced seizures at 100 mg/kg, ip measured after 1 hr; type: functional, organism-based; design: dose 100 mg/kg
[36] = tested on: Mus musculus; assay: Anticonvulsant activity in albino CF1 mouse assessed as protection against 32 mA current-induced seizures at 100 mg/kg, ip measured after 2 hrs; type: functional, organism-based; design: dose 100 mg/kg
[37] = tested on: Mus musculus; assay: Anticonvulsant activity in albino CF1 mouse assessed as protection against 32 mA current-induced seizures at 100 mg/kg, ip measured after 4 hrs; type: functional, organism-based; design: dose 100 mg/kg
[38] = tested on: Mus musculus; assay: Neurotoxicity in 32 mA current-induced seizure albino CF1 mouse model at 100 mg/kg, ip measured after 0.25 hr; type: toxicity, organism-based; design: dose 100 mg/kg, route intraperitoneal; details: in vivo
[39] = tested on: Mus musculus; assay: Neurotoxicity in 32 mA current-induced seizure albino CF1 mouse model at 100 mg/kg, ip measured after 0.5 hr; type: toxicity, organism-based; design: dose 100 mg/kg, route intraperitoneal; details: in vivo
[40] = tested on: Mus musculus; assay: Neurotoxicity in 32 mA current-induced seizure albino CF1 mouse model at 100 mg/kg, ip measured after 1 hr; type: toxicity, organism-based; design: dose 100 mg/kg, route intraperitoneal; details: in vivo
[41] = tested on: Mus musculus; assay: Neurotoxicity in 32 mA current-induced seizure albino CF1 mouse model at 100 mg/kg, ip measured after 2 hrs; type: toxicity, organism-based; design: dose 100 mg/kg, route intraperitoneal; details: in vivo
[42] = tested on: Mus musculus; assay: Neurotoxicity in 32 mA current-induced seizure albino CF1 mouse model at 100 mg/kg, ip measured after 4 hrs; type: toxicity, organism-based; design: dose 100 mg/kg, route intraperitoneal; details: in vivo

Compound | Activity [1] | Activity [2] | Activity [3] | Activity [4] | Activity [5] | Activity [6] | Activity [7] | Activity [8] | Activity [9] | Activity [10] | Activity [11] | Activity [12] | Activity [13] | Activity [14] | Activity [15] | Activity [16] | Activity [17] | Activity [18] | Activity [19] | Activity [20] | other results
O=C1NC(=O)[C@@H]2CCCN2[C@H]1c1ccccc1F | inactive | Active | inactive | inactive | Active | inactive | inactive | inactive | Toxic | Non-toxic | Non-toxic | Non-toxic | inactive | inactive | inactive | inactive | inactive | Non-toxic | Non-toxic | Non-toxic | Activity [21]: Non-toxic; Activity [22]: Non-toxic; Activity [23]: inactive; Activity [24]: inactive; Activity [25]: inactive; Activity [26]: inactive; Activity [27]: inactive; Activity [28]: Non-toxic; Activity [29]: Non-toxic; Activity [30]: Non-toxic; Activity [31]: Non-toxic; Activity [32]: Non-toxic
O=C1NC(=O)[C@@H]2CCCN2[C@H]1c1cccc(F)c1 | Active | Active | inactive | inactive | Active | Active | inactive | inactive | Non-toxic | Non-toxic | Non-toxic | Non-toxic | inactive | inactive | inactive | inactive | inactive | Non-toxic | Non-toxic | Non-toxic | Activity [33]: Active; Activity [34]: Active; Activity [35]: inactive; Activity [36]: inactive; Activity [37]: inactive; Activity [38]: Non-toxic; Activity [39]: Non-toxic; Activity [40]: Non-toxic; Activity [41]: Non-toxic; Activity [42]: Non-toxic; Activity [21]: Non-toxic; Activity [22]: Non-toxic
